{
  "source": "patent US20180369111A1",
  "about": "“COMPOSITION COMPRISING BAICALIN AT A HIGH CONCENTRATION” (L'OREAL, priority 2015, published 2018)",
  "experiment": "Solubility and chemical stability of baicalin in aqueous medium as a function of pH",
  "type": "physicochemical",
  "from_the_text": "Baicalin is a polyphenol displaying an antioxidant activity. There is thus a need, for consumers, to provide cosmetic compositions comprising baicalin, or an extract containing same, at a high concentration and having a greater antioxidant efficacy than the cosmetic compositions known in the prior art comprising baicalin. However, the solubility of baicalin is very low in aqueous medium. It is therefore very difficult to incorporate in a composition, in particular a cosmetic composition, at a high mass concentration, in particular at a mass concentration greater than 0.2%. At a mass concentration greater than 0.2%, the appearance of the presence of crystallized baicalin is observed. The present inventors have identified that the solubility of baicalin was increased with the pH.\nIn particular, the method implemented to incorporate baicalin, or an extract containing same, at a high mass concentration, i.e. for example greater than 0.5% in the aqueous phase of a composition consists, in a first transitory step, of completely dissolving the baicalin in aqueous phase in a basic medium using a base to raise the pH to a value greater than 6. Under these conditions, it is possible to prepare aqueous solutions comprising up to 10% baicalin as a mass concentration, without using hydrotropic agents.\nBaicalin is presented in the form of a yellow powder, having a purity optionally greater than 90 or 95%. Baicalin crystals may be presented in the form of needles.",
  "data": [
    {"smiles": "O=C(O)[C@H]1O[C@@H](Oc2cc3oc(-c4ccccc4)cc(=O)c3c(O)c2O)[C@H](O)[C@@H](O)[C@@H]1O", "note": "[Baicalin]", "values": [
      {"measurement": "baicalin mass concentration attainable in aqueous solution", "result": "up to 10%"},
      {"measurement": "chemical stability of baicalin", "setting": "at a pH greater than 6", "result": "chemically unstable and is degraded"},
      {"measurement": "mass concentration above which crystallized baicalin appears", "setting": "in a composition, mass concentration", "result": "greater than 0.2%"}
    ]}
  ]
}
